According to patent US12564591B2, “HCK as a therapeutic target in MYD88 mutated diseases” (Dana-Farber Cancer Institute, Inc., priority 2019, dated 2026):
“Also recorded” adds a separate entry of the source. Read-outs that look alike come from different tables or passages of the source. One block for each compound: values may come before it.

How the values were obtained:
[1] = system: BTK and ERK 1/2 phosphorylation; details: vector only, and BTK^WT transduced BCWM.1 or TMD8 cells, 1.0 hour
[2] = system: Salmonella typhimurium tester strains (TA98, TA100, TA1535 and TA1537); assay: Ames genotoxicity testing; details: up to 50 μM with and without metabolic activation by rat liver S9 fraction
[3] = system: HCK activation (pHCK^Y411); assay: pHCK by PhosFlow in HCK^WT or HCK^T333M transduced BCWM.1 cells; assay type: cell-based; details: HCK^T333M but not HCK^WT expressing BCWM.1 cells
Description: (§1) An HCK gatekeeper mutant HCK^T333M was generated and rescue experiments performed in MYD88 mutated BCWM.1 cells. Expression of HCK^T333M produced a more than 20-fold increase in resistance to Compound (I) versus vector or wild-type HCK transduced BCWM.1 cells (FIG. 5A).

[4] = system: vector, HCK^WT or HCK^T333M transduced MWCL-1 WM cells; assay: HCK^T333M gatekeeper mutant rescue, dose-response 72 hours; assay type: cell-based
Protocol: Dose-responses of vector only or HCK^WT or HCK^T333M transduced MWCL-1 cells following the treatment Compound (I) for 72 hours (FIG. 6A).

[5] = Survivability of treated subjects; assay type: in vivo; details: compared to subjects treated with other BTK inhibitors (e.g., ibrutinib, A419259)
[6] = biological target: T1, BTK (Homo sapiens, UniProt Q06187); assay: ATP-competitive pulldown assay (desthiobiotin-ATP probe, western blot) in live BCWM.1 and TMD8 cells; assay type: cell-based; details: live cell pre-treatment
[7] = biological target: T2, LYN (Homo sapiens, UniProt P07948); assay: Enzymatic assay (SelectScreen, Life Technologies); assay type: biochemical
[8] = Murine pharmacokinetics (intravenous and oral); assay type: in vivo; details: mouse, serum; for bioavailability: read-out: bioavailability (% F)
[9] = system: p-HCK and p-BTK in WM patients LPCs; assay: p-HCK and p-BTK by PhosFlow in MYD88 mutated WM patient bone marrow tumor cells; assay type: cell-based, human
Protocol: (§2) The anti-tumor activity of Compound (I) was also assessed using primary MYD88 mutated bone marrow derived CD19-positive lymphoplasmacytic cells (LPCs) from WM patients, and compared effects against healthy donor CD19+ B-cells.

[10] = system: healthy donor CD19+ B-cells; assay: Apoptosis of healthy donor B-cells; assay type: cell-based, human
Protocol: as §2

[11] = biological target: hERG (Homo sapiens, UniProt Q12809); assay: hERG testing (patch clamp) for cardiotoxicity; assay type: cell-based; details: at 16 μM
Description: (§3) […]. […] […].

[12] = biological target: T1, BTK; assay: Enzymatic / biochemical kinase assay (SelectScreen, Life Technologies); design: purchased Life Technologies (SelectScreen)
[13] = system: vector, HCK^WT or HCK^T333M transduced BCWM.1 cells; assay: HCK^T333M gatekeeper mutant rescue, dose-response 72 hours; assay type: cell-based; details: versus vector or wild-type HCK transduced BCWM.1 cells
Description: as §1

[14] = Liver microsome stability; assay type: in vitro ADME; details: rat, liver microsomes
[15] = Liver microsome stability; assay type: in vitro ADME; details: human, liver microsomes
[16] = system: panel of 464 kinases; assay: KINOMEscan kinome selectivity profiling (DiscoverX); assay type: binding; details: for S(1) score / S(10) score: 1.0 μM, panel of over 460 kinases
Protocol: The compounds were profiled at a concentration of 1.0 μM against a panel of over 460 kinases by DiscoverX.

[17] = Liver microsome stability; assay type: in vitro ADME; details: mouse, liver microsomes
[18] = biological target: CYP2D6 (Homo sapiens, UniProt P10635); assay: In vitro CYP inhibition; assay type: in vitro ADME; design: dose or concentration left out as unconfirmed; details: at 10 PM, read-out: CYP inhibition (2D6)
Description: as §3

[19] = biological target: CYP2C8 (Homo sapiens, UniProt P10632); assay: In vitro CYP inhibition; assay type: in vitro ADME; design: dose or concentration left out as unconfirmed; details: at 10 PM, read-out: CYP inhibition (2C8)
Description: as §3

[20] = system: CYP1A; assay: In vitro CYP inhibition; assay type: in vitro ADME; design: dose or concentration left out as unconfirmed; details: at 10 PM; read-out: CYP inhibition (1A)
Description: as §3

[21] = biological target: CYP2B6 (Homo sapiens, UniProt P20813); assay: In vitro CYP inhibition; assay type: in vitro ADME; design: dose or concentration left out as unconfirmed; details: at 10 PM, read-out: CYP inhibition (2B6)
Description: as §3

[22] = biological target: CYP2C19 (Homo sapiens, UniProt P33261); assay: In vitro CYP inhibition; assay type: in vitro ADME; design: dose or concentration left out as unconfirmed; details: at 10 PM, read-out: CYP inhibition (2C19)
Description: as §3

[23] = biological target: CYP2C9 (Homo sapiens, UniProt P11712); assay: In vitro CYP inhibition; assay type: in vitro ADME; design: dose or concentration left out as unconfirmed; details: at 10 PM, read-out: CYP inhibition (2C9)
Description: as §3

[24] = biological target: T3, HCK (Homo sapiens, UniProt P08631); assay: ATP-competitive pulldown assay (desthiobiotin-ATP probe, western blot) in live BCWM.1 and TMD8 cells; assay type: cell-based; design: purchased Life Technologies (SelectScreen); details: live cell pre-treatment
[25] = system: vector, HCK^WT or HCK^T333M transduced TMD8 ABC DLBCL cells; assay: HCK^T333M gatekeeper mutant rescue, dose-response 72 hours; assay type: cell-based
Protocol: Dose-responses of vector only or HCK^WT or HCK^T333M transduced […] cells following the treatment Compound (I) for 72 hours (FIG. 7A).

[26] = system: pBTK, pAKT, pERK1/2, and pSYK; assay: Western blot of downstream signaling in HCK^WT or HCK^T333M transduced BCWM.1 cells; assay type: cell-based
Description: as §1

[27] = biological target: T3, HCK; assay: Enzymatic / biochemical kinase assay (SelectScreen, Life Technologies)
[28] = system: primary MYD88 mutated bone marrow derived CD19-positive lymphoplasmacytic cells (LPCs) from WM patients; assay: Apoptosis of primary WM patient lymphoplasmacytic cells; assay type: cell-based, human
Protocol: as §2

[29] = system: HCK phosphorylation at Thr^209; details: MYD88 mutated WM and ABC DLBCL cells
[30] = system: MYD88 mutated WM and ABC DLBCL cell lines versus MYD88 wild-type GCB DLBCL, Burkitt's Lymphoma, and multiple myeloma cell lines; assay: CellTiter-Glo cell viability, MYD88 mutated versus wild-type cell lines; assay type: cell-based
[31] = Liver microsome stability; assay type: in vitro ADME; details: dog, liver microsomes; dogs; read-out: half-life t1/2 with purified microsomes
[32] = Plasma protein binding; assay type: in vitro ADME
Description: as §3

[33] = Tolerability study, daily oral dosing; assay type: in vivo; details: up to 75 mg/kg daily oral dosing, NOD-SCID mice dosed for >6 weeks, no adverse events observed
Description: as §3

[34] = biological target: T2, LYN; assay: ATP-competitive pulldown assay (desthiobiotin-ATP probe, western blot) in live BCWM.1 and TMD8 cells; assay type: cell-based; design: endogenous in cells; host or cells: BCWM.1 and TMD8 cells
[35] = system: kinases in TMD8 ABC DLBCL cells; assay: KiNativ live-cell target engagement profiling (desthiobiotin-ATP probe); assay type: cell-based
[36] = Pharmacokinetics of A419259 under oral administration
[37] = read-out: T1/2 in liver microsomes
[38] = HCK^T333M expressing BCWM.1 cells

T3 sequence (P08631 whole entry): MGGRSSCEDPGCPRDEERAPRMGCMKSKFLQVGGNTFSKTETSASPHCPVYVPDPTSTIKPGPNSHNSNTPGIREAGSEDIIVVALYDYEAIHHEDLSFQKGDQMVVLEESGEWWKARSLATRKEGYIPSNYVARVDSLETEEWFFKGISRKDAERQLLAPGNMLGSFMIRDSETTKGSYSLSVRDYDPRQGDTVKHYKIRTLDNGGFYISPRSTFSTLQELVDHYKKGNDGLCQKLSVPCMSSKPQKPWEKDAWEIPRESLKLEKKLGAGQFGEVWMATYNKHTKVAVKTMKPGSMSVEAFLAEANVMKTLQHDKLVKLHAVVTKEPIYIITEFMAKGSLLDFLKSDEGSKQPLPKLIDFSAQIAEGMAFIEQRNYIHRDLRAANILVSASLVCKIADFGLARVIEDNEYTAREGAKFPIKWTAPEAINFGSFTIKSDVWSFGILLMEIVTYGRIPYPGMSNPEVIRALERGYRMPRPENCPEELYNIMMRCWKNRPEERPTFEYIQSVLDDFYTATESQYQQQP
T1 sequence (Q06187 whole entry): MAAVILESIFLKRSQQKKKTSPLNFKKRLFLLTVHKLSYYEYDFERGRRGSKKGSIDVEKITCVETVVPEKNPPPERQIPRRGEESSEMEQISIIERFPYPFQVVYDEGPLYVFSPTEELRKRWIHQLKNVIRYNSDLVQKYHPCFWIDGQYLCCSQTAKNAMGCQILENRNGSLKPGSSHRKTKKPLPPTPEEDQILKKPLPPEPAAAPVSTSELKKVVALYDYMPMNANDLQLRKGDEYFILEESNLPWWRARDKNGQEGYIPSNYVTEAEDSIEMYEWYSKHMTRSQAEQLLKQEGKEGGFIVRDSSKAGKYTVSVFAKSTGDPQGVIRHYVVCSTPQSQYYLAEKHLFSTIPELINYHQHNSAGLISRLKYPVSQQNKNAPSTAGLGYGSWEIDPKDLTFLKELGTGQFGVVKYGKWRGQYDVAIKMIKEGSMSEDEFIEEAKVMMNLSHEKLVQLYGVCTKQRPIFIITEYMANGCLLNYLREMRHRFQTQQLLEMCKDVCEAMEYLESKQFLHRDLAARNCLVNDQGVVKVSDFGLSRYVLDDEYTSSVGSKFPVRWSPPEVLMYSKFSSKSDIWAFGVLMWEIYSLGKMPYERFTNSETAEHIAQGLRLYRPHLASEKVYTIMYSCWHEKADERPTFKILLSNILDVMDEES
T2 sequence (P07948 whole entry): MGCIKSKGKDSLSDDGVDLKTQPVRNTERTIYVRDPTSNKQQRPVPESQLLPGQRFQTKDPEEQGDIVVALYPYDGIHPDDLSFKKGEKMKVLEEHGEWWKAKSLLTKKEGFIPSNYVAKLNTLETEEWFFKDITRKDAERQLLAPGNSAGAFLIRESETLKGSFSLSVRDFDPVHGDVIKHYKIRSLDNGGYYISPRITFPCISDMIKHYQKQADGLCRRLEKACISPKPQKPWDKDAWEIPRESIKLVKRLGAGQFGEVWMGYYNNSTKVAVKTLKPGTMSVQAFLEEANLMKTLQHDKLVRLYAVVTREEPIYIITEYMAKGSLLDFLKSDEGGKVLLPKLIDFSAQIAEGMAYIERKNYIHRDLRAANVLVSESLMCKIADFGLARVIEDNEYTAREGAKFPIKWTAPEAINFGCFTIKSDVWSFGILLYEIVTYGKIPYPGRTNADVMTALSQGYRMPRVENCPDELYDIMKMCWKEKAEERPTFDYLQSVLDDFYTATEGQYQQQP
Sequence of hERG (Q12809 whole entry): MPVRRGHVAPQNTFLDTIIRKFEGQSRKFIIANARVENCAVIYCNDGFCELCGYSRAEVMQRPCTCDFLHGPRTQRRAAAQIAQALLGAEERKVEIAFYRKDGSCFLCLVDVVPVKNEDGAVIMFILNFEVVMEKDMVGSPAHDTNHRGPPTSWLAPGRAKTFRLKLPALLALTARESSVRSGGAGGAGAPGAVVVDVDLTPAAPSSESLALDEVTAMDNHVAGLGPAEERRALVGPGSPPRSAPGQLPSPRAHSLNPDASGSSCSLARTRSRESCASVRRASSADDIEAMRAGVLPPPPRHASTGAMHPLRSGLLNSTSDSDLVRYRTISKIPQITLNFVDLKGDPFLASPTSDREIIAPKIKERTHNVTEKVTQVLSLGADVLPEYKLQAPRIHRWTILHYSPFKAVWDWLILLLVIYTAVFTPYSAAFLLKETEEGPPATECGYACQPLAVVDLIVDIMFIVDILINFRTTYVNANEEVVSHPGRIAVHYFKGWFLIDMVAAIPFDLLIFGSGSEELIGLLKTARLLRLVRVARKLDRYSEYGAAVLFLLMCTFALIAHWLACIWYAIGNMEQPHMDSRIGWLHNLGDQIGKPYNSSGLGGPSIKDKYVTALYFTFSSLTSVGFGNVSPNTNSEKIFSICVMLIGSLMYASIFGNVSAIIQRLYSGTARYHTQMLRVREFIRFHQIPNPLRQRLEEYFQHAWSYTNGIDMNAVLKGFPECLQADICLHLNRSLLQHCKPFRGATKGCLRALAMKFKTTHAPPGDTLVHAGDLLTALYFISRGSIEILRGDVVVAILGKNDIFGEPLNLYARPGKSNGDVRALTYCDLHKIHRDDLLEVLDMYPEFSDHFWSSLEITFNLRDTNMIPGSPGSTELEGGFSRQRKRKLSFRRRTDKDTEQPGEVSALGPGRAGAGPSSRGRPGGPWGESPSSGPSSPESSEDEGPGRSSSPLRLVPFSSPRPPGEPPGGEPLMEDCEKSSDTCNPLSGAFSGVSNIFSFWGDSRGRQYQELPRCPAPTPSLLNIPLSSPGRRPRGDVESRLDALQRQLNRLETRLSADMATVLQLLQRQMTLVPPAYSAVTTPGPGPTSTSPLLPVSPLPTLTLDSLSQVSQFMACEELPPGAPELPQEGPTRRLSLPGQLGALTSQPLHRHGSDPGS
Sequence of CYP2D6 (P10635 whole entry): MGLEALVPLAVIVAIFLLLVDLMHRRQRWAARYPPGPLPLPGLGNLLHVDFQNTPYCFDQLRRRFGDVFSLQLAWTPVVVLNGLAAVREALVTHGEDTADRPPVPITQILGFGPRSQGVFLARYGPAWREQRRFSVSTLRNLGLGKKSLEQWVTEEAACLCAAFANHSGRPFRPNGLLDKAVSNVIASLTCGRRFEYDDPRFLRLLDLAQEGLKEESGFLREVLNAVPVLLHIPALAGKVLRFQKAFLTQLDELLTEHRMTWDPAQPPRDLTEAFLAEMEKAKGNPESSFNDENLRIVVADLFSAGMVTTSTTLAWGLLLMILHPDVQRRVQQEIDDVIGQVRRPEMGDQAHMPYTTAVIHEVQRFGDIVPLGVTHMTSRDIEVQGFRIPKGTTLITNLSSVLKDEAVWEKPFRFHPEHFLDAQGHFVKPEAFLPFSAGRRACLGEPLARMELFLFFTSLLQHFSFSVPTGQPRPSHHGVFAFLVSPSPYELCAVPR
Sequence of CYP2C9 (P11712 whole entry): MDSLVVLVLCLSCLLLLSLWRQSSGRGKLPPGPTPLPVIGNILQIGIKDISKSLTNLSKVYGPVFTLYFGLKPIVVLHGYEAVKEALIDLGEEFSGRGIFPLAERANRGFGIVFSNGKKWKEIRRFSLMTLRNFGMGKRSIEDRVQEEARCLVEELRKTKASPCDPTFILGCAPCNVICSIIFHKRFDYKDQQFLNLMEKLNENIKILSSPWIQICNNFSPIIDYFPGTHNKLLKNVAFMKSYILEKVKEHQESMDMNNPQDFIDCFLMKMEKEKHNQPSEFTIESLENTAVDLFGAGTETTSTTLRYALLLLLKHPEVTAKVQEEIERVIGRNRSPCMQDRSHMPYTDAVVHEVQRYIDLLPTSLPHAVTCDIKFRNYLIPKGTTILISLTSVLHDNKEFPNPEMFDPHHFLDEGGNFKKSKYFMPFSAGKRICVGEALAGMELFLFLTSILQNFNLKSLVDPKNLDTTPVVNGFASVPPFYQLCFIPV
Sequence of CYP2B6 (P20813 whole entry): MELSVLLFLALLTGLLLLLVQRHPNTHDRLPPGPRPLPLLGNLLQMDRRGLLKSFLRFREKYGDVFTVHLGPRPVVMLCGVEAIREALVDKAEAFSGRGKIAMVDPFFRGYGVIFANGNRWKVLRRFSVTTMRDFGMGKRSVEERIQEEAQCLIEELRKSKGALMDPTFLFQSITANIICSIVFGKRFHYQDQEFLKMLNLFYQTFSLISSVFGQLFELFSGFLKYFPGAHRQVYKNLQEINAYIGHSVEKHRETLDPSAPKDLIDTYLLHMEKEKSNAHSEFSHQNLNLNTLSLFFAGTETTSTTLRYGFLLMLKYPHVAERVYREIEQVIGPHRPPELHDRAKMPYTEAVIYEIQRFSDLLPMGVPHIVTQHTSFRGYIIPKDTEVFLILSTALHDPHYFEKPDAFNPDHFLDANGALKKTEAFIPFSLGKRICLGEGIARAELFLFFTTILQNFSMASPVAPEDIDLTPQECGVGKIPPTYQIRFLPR
Sequence of CYP2C8 (P10632 whole entry): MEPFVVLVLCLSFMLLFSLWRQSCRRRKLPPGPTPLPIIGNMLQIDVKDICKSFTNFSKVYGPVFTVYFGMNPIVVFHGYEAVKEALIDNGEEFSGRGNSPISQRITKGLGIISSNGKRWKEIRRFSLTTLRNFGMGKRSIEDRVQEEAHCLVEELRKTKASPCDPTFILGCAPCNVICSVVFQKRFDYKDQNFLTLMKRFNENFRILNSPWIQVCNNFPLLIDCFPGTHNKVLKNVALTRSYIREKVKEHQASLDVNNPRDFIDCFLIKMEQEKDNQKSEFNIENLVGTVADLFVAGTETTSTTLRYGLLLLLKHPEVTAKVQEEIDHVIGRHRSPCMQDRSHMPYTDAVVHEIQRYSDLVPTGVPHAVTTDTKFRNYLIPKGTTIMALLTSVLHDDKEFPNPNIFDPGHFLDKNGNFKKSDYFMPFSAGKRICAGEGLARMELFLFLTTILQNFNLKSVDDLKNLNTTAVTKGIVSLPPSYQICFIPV

Compound: CN1CCN(C2CCC(n3nc(-c4ccc(Oc5ccccc5)cc4)c4c(N)ncnc43)CC2)CC1 (stereo not shown) [Compound (I), 1-((1r,4r)-4-(4-methylpiperazin-1-yl)cyclohexyl)-3-(4-phenoxyphenyl)-1H-pyrazolo[3,4-d]pyrimidin-4-amine]
BTK and ERK 1/2 phosphorylation [1]: effectively blocked
Ames genotoxicity [2]: negative
HCK activation in the presence of compound [3]: persistent activation of HCK
effect of HCK^T333M on compound induced cell death [4]: rescues Compound (I) induced cell death
survivability [5]: increased survivability
BTK inhibition / binding [6]: effectively binds
IC50s (in words) [7]: single-digit nanomolar
clearance ([8]; intravenous, 2 mg/kg, read-out: in vivo clearance rate): 17.4 mL/min/kg
bioavailability ([8]; po, 10 mg/kg, 10 mg/kg oral): 49%
bioavailability ([8]; po, 25 mg/kg, 25 mg/kg oral): 55%
AUC ([8]; po, orally at 10 mg/kg): 5.2 µM·h
half-life ([8]; po, orally at 10 mg/kg and 25 mg/kg, read-out: T1/2): 15.1 to 16.9 h
AUC ([8]; po, orally at 25 mg/kg): 11.4 µM·h
half-life ([8]; 10 mg/kg oral, read-out: serum half-life (converted)): 15.1 h
half-life ([8]; 25 mg/kg oral, read-out: serum half-life (converted)): 16.9 h
half-life ([8]; intravenous administration (2 mg/kg), read-out: serum half-life (converted)): 11.5 h
p-HCK and p-BTK levels [9]: reduction of p-HCK(T209) and p-BTK^Y223
apoptotic effect [10]: no apoptotic effect
hERG cardiotoxicity (patch clamp) [11]: negative
IC50s (in words) [12]: single-digit nanomolar
increase in resistance by expression of HCK^T333M [13]: more than 20 fold
half-life ([14]; rats, read-out: half-life t1/2 with purified microsomes): > 2 h
half-life [14, 37]: ≥ 1 h
half-life ([15]; humans, read-out: half-life t1/2 with purified microsomes): 0.825 h
half-life [15, 37]: ≥ 1 h
S(1) score [16]: 0.07
S(10) score [16]: 0.13
S10 ([16]; panel of 464 kinases): 0.07
S35 ([16]; panel of 464 kinases): 0.13
targeted kinases ([16]; panel of 464 kinases): mainly limited to the Src-family kinases HCK, BLK, LYN, and FRK, and the Tec-family kinase BTK
half-life ([17]; mice, read-out: half-life t1/2 with purified microsomes): 1.77 h
half-life [17, 37]: ≥ 1 h
inhibition [18]: 24.9%
inhibition [19]: -3.8%
inhibition [20]: -27.9%
inhibition [21]: 64.5%
inhibition [22]: 0.8%
inhibition [23]: -10.9%
engagement of / binding to HCK [24]: robust engagement; also recorded: very strongly binds
effect of HCK^T333M on compound induced cell death [25]: rescues Compound (I) induced cell death
attenuation of pBTK, pAKT, pERK1/2, and pSYK [26, 38]: abrogated
pBTK [26, 38]: continued to show reduced activity
expression of pBTK, pAKT, pERK1/2, and p-SYK ([26]; HCK^WT expressing BCWM.1 cells): blocked the expression of pBTK, pAKT, pERK1/2, and p-SYK in a dose dependent manner
IC50s (in words) [27]: single-digit nanomolar
apoptotic effect [28]: robust apoptosis
inhibition of HCK phosphorylation [29]: robust inhibition
anti-tumor activity [30]: targeted anti-tumor activity
half-life [31]: 1 h
fraction unbound ([32]; dog, dogs): 0.05
fraction unbound ([32]; human, humans): 0.043
fraction unbound ([32]; mouse, mice): 0.023
fraction unbound ([32]; rat, rats): 0.045
tolerability [33]: well-tolerated
binding to LYN [34]: very strongly binds
activity against SRC-family kinases (HCK, BLK, LYN, FRK), Tec-family kinases (BTK), ACK (TNK2), CSK, ErbB2, and ABL [35]: nanomolar activity
target engagement (block of kinase binding to desthiobiotin-ATP probe) ([35]; TMD8 ABC DLBCL cells treated at 1. μM): strongly targeted both HCK and BTK

IC50 [12]: 0.915 nM
IC50 [27]: < 0.495 nM
Compound: CN1CCN([C@H]2CC[C@H](n3nc(-c4ccc(Oc5ccccc5)cc4)c4c(N)ncnc43)CC2)CC1 [Compound (I), 1-((1r,4r)-4-(4-methylpiperazin-1-yl)cyclohexyl)-3-(4-phenoxyphenyl)-1H-pyrazolo[3,4-d]pyrimidin-4-amine]

Tui2 [36]: 176.0 h
Compound: CN1CCN(C2CCC(n3cc(-c4ccc(Oc5ccccc5)cc4)c4c(N)ncnc43)CC2)CC1 (stereo not shown) [Compound A419259, reference compound]
S(1) score [16]: 0.07
S(10) score [16]: 0.13
